Data published in publication PMC7024302, “Ultrashort Cationic Lipopeptides–Effect of N-Terminal Amino Acid and Fatty Acid Type on Antimicrobial Activity and Hemolysis” (Molecules, 2020).
≈ marks a conversion by molar mass, not a printed value. Where two headings read alike, the source gives them in different places. Residues, ends and D or L forms follow the SMILES beside them.

Assays:
[1] = Determination of peptide hydrophobicity with RP-HPLC (adjusted retention time); assay type: physicochemical; settings: for tR’: Table 3, adjusted retention time as hydrophobicity; for tR’ / Adjusted retention time: RP-HPLC C18, linear 10–55% acetonitrile over 60 min; for tR’ / Adjusted retention time / tR’ (adjusted retention time): 0.1% TFA, 25.0 °C, UV 214 nm, triplicate; for Adjusted retention time: Table 2, nC = carbon atoms in fatty acid chain; for tR’ (adjusted retention time): Table 1 and b9, measure of hydrophobicity, RP-HPLC, Phenomenex Luna C18(2) 3.0 × 100 mm, 5 µm, linear 10–55% acetonitrile in water over 60 min, 0.5 mL/min, peptide 1 g/L; for ∆tR: tR’ of the lipopeptide minus tR’ of C10-RR-NH2 or C12-RR-NH2, same RP-HPLC conditions
Description: To determine peptide hydrophobicity, the Waters Alliance e2695 system with a Waters 2998 PDA Detector (software-Empower®3) was used. All analyses were carried out on a Phenomenex Luna C18(2) column (3.0 × 100 mm, 5 µm particle size, 100 Å pore size). The peptides were dissolved in water (0.1% TFA, v/v) to obtain a concentration of 1 g/L. UV detection at 214 nm was used, and aliquots (10 µL) were eluted with a linear 10–55% acetonitrile gradient in deionized water over 60 min at 25.0 ± 0.1 °C. The mobile phase flow rate was 0.5 mL/min. Both eluents contained 0.1% (v/v) of TFA. Each peptide sample was analyzed in triplicate.

[2] = test system: S. aureus ATCC 33591 (MRSA); assay type: cell-based, Staphylococcus aureus; settings: ATCC 33591, 18 h
Description: (§1) The Acinetobacter baumannii ATCC BAA-1605, Candida albicans ATCC 10231, Enterococcus faecium ATCC 700221, Klebsiella aerogenes ATCC 13048 (previously known as Enterobacter aerogenes), Klebsiella pneumoniae ATCC 700603, Pseudomonas aeruginosa ATCC 9027, Staphylococcus aureus ATCC 25923 and MRSA ATCC 33591, were acquired from the American Type Culture Collection (ATCC). Before running the tests, beads with cryo-protected microorganisms were transferred into fresh MHB (BioMaxima, Lublin, Poland) for bacteria or RPMI-1640 for fungi and incubated for 24 h at 37 °C. Then, the culture was seeded on the Mueller-Hinton agar (MHA) plates (BioMaxima, Lublin, Poland) for bacteria or Sabouraud dextrose agar (SDA) plates (BioMaxima, Lublin, Poland) for fungi and incubated as just mentioned. Cell densities for all assays were adjusted spectrophotometrically (Multiskan™ GO Microplate Spectrophotometer, Thermo Fisher Scientific, Vantaa, Finland) at 600 nm for bacteria and at 530 nm for fungi.
(§2) The MICs were determined by broth microdilution method according to the Clinical and Laboratory Standard Institute guidelines. For this purpose initial inoculums of bacteria (5 × 10^5 CFU/mL) in MHB (BioMaxima, Lublin, Poland) and fungi (2 × 10^3 CFU/mL) in RPMI-1640 with 2% D-glucose (Merck, Darmstadt, Germany) prepared with MOPS (pH 7.0 ± 0.1 at 25 °C; Merck, Darmstadt, Germany) were exposed to the ranging concentration of lipopeptides (0.5–256 µg/mL) and incubated at 37 °C for 18 h and 24 h respectively. The experiments were conducted on 96-well microtiter polystyrene plates (Kartell, Italy). The MIC was taken as the lowest peptide concentration at which a noticeable growth of microorganisms was inhibited. All experiments were conducted in triplicate.

[3] = test system: S. aureus ATCC 25923; assay type: cell-based, Staphylococcus aureus; settings: ATCC 25923, 18 h
Description: as §1, §2

[4] = test system: K. aerogenes ATCC 13048; assay type: cell-based, Klebsiella aerogenes; settings: ATCC 13048, 18 h
Description: as §1, §2

[5] = test system: K. pneumoniae ATCC 700603; assay type: cell-based, Klebsiella pneumoniae; settings: ATCC 700603, 18 h
Description: as §1, §2

[6] = test system: C. albicans ATCC 10231; assay type: cell-based, Candida albicans
Description: as §1, §2

[7] = test system: E. faecium ATCC 700221; assay type: cell-based, Enterococcus faecium; settings: ATCC 700221, 18 h
Description: as §1, §2

[8] = test system: human red blood cells (hRBCs); assay type: cell-based; settings: red cells of human, 1 h
Description: The hemolysis assay was performed as described earlier according to the method of Avrahami and Shai. Fresh human red blood cells (hRBCs) with anticoagulant (EDTA) were rinsed three times with a PBS (Merck, Darmstadt, Germany) by centrifugation at 800× g for 10 min and resuspended in PBS. Lipopeptides were serially diluted on 96-well microtiter polystyrene plate and hRBCs were added to reach final volume of 100 µL. Peptide concentration ranged between 0.5 and 256 µg/mL and final hRBCs concentration was 4% (v/v). Controls for zero hemolysis (blank) and 100% hemolysis consisted of hRBCs suspended in PBS and 1% of Triton-X 100 (Merck, Darmstadt, Germany), respectively. The plate was incubated for 1 h at 37 °C and then centrifuged (800× g, 10 min, 4 °C). Subsequently, supernatant was […] to new microtiter plates and absorbance at 540 nm were measured. All experiments were conducted in triplicate. Protocol of the study received approval from the local Bioethics Committee at the Medical University of Gdańsk (NKBBN/262/2019).

[9] = test system: P. aeruginosa ATCC 9027; assay type: cell-based, Pseudomonas aeruginosa; settings: ATCC 9027, 18 h
Description: as §1, §2

[10] = test system: A. baumannii ATCC BAA-1605; assay type: cell-based, Acinetobacter baumannii; settings: ATCC BAA-1605, 18 h
Description: as §1, §2

| tR’ [1] [min] | MIC SA [3] [µg/mL] | HC50 [8] | MIC PA [9] [µg/mL] | MIC CA ([6]; ATCC 10231, 24 h, pH 7) [µg/mL] | tR’ (adjusted retention time) [1] [min] | Compound | further results |
| --- | --- | --- | --- | --- | --- | --- | --- |
| 46.51 | 8 (≈ 14.1 µM) | 22.91 (±1.18) µg/mL | 16 (≈ 28.2 µM) |  |  | CCCCCCCCCCCCCCCC(=O)N[C@@H](CCCNC(=N)N)C(=O)N[C@@H](CCCNC(=N)N)C(N)=O [compound 5, C16-RR-NH2, reference compound] (HELM PEPTIDE1{[CCCCCCCCCCCCCCCC(=O)[*:2]].R.R.[am]}$$$$V2.0) | MIC S [2]: 8 µg/mL (≈ 14.1 µM); MIC E2 [4]: 32 µg/mL (≈ 56.4 µM); MIC K [5]: 32 µg/mL (≈ 56.4 µM); MIC CA ([6]; C. albicans ATCC 10231, RPMI-1640 with 2% D-glucose, MOPS pH 7.0, 2 × 10^3 CFU/mL, 0.5–256 µg/mL, 37 °C, 24 h, triplicate): 4 µg/mL (≈ 7.04 µM); MIC E1 [7]: 8 µg/mL (≈ 14.1 µM); MIC A [10]: 32 µg/mL (≈ 56.4 µM) |
| 38.71 | 16 (≈ 24.5 µM) | 64.37 (±2.23) µg/mL | 32 (≈ 48.9 µM) | 16 (≈ 24.5 µM) |  | CCCCCCCCCCCCCC(=O)N[C@@H](CC(N)=O)C(=O)N[C@@H](CCCNC(=N)N)C(=O)N[C@@H](CCCNC(=N)N)C(N)=O [compound 62, C14-NRR-NH2] (HELM PEPTIDE1{[CCCCCCCCCCCCCC(=O)[*:2]].N.R.R.[am]}$$$$V2.0) | MIC S [2]: 16 µg/mL (≈ 24.5 µM); MIC E2 [4]: 128 µg/mL (≈ 196 µM); MIC K [5]: 128 µg/mL (≈ 196 µM); MIC E1 [7]: 8 µg/mL (≈ 12.2 µM); MIC A [10]: 32 µg/mL (≈ 48.9 µM) |
|  | 4 (≈ 7.04 µM) | 200.25 (±16.07) µg/mL | 8 (≈ 14.1 µM) | 16 (≈ 28.2 µM) |  | CCCCCCCCC(CCCCCC)C(=O)N[C@@H](CCCNC(=N)N)C(=O)N[C@@H](CCCNC(=N)N)C(N)=O (some centres unmarked) [compound 105, C10(6)-RR-NH2] | MIC S [2]: 4 µg/mL (≈ 7.04 µM); MIC E2 [4]: >256 (-) µg/mL; MIC K [5]: >256 (-) µg/mL; MIC E1 [7]: 8 µg/mL (≈ 14.1 µM); MIC A [10]: 256 µg/mL (≈ 451 µM) |
|  | 32 (≈ 53.6 µM) | >256 µg/mL | 64 (≈ 107 µM) | 64 (≈ 107 µM) |  | CCCCCCCCCC(=O)N[C@@H](CCCC)C(=O)N[C@@H](CCCNC(=N)N)C(=O)N[C@@H](CCCNC(=N)N)C(N)=O [compound 64, C10-NleRR-NH2] (HELM PEPTIDE1{[CCCCCCCCCC(=O)[*:2]].[Nle].R.R.[am]}$$$$V2.0) | Adjusted retention time [1]: 33.155 min |
|  |  |  |  |  | 31.07 | CCCCCCCCCC(=O)N[C@@H](CCCNC(=N)N)C(=O)N[C@@H](CCCNC(=N)N)C(=O)N[C@@H](Cc1ccccc1)C(N)=O [compound 108, C10-RRF-NH2] (HELM PEPTIDE1{[CCCCCCCCCC(=O)[*:2]].R.R.F.[am]}$$$$V2.0) | ∆tR [1]: 6.77 min |
| 14.46 |  |  |  |  |  | CCCCCCCC(=O)N[C@@H](CCCNC(=N)N)C(=O)N[C@@H](CCCNC(=N)N)C(N)=O [compound 1, C8-RR-NH2, reference compound] (HELM PEPTIDE1{[CCCCCCCC(=O)[*:2]].R.R.[am]}$$$$V2.0) |  |
| 35.82 | 32 (≈ 52.6 µM) | >256 µg/mL | 64 (≈ 105 µM) | 64 (≈ 105 µM) |  | CCCCCCCCCCCC(=O)N1CCC[C@H]1C(=O)N[C@@H](CCCNC(=N)N)C(=O)N[C@@H](CCCNC(=N)N)C(N)=O [compound 73, C12-PRR-NH2] |  |
|  |  |  |  |  | 38.02 | CCCCCCCCCCCC(=O)N[C@@H](CCCNC(=N)N)C(=O)N[C@@H](CCCNC(=N)N)C(=O)N[C@@H](Cc1ccccc1)C(N)=O [compound 109, C12-RRF-NH2] (HELM PEPTIDE1{[CCCCCCCCCCCC(=O)[*:2]].R.R.F.[am]}$$$$V2.0) | ∆tR [1]: 5.44 min |
| 33.20 | 32 (≈ 56.3 µM) | >256 µg/mL | 128 (≈ 225 µM) | 64 (≈ 113 µM) |  | CCCCCCCCCCCC(=O)NCC(=O)N[C@@H](CCCNC(=N)N)C(=O)N[C@@H](CCCNC(=N)N)C(N)=O [compound 29, C12-GRR-NH2] |  |
| 33.82 | 32 (≈ 52.2 µM) | >256 µg/mL | 128 (≈ 209 µM) | 64 (≈ 104 µM) |  | CCCCCCCCCCCC(=O)N[C@H](C(=O)N[C@@H](CCCNC(=N)N)C(=O)N[C@@H](CCCNC(=N)N)C(N)=O)[C@@H](C)O [compound 89, C12-TRR-NH2] (HELM PEPTIDE1{[CCCCCCCCCCCC(=O)[*:2]].T.R.R.[am]}$$$$V2.0) |  |
|  |  |  |  |  |  | CCCCCCCC(=O)N[C@@H](CCCC)C(=O)N[C@@H](CCCNC(=N)N)C(=O)N[C@@H](CCCNC(=N)N)C(N)=O [compound 63, C8-NleRR-NH2] (HELM PEPTIDE1{[CCCCCCCC(=O)[*:2]].[Nle].R.R.[am]}$$$$V2.0) | Adjusted retention time [1]: 25.429 min |
|  |  |  |  |  | 38.67 | CCCCCCCCCCCC(=O)N[C@@H](CCCNC(=N)N)C(=O)N[C@@H](Cc1ccccc1)C(=O)N[C@@H](CCCNC(=N)N)C(N)=O [compound 107, C12-RFR-NH2] (HELM PEPTIDE1{[CCCCCCCCCCCC(=O)[*:2]].R.F.R.[am]}$$$$V2.0) | ∆tR [1]: 6.09 min |
|  |  |  |  |  | 31.44 | CCCCCCCCCC(=O)N[C@@H](CCCNC(=N)N)C(=O)N[C@@H](Cc1ccccc1)C(=O)N[C@@H](CCCNC(=N)N)C(N)=O [compound 106, C10-RFR-NH2] (HELM PEPTIDE1{[CCCCCCCCCC(=O)[*:2]].R.F.R.[am]}$$$$V2.0) | ∆tR [1]: 7.14 min |
| 40.17 | 64 (≈ 95.7 µM) | 59.51 (±4.00) µg/mL | 128 (≈ 191 µM) | 32 (≈ 47.8 µM) |  | CCCCCCCCCCCCCC(=O)N[C@@H](CCC(=O)O)C(=O)N[C@@H](CCCNC(=N)N)C(=O)N[C@@H](CCCNC(=N)N)C(N)=O [compound 22, C14-ERR-NH2] (HELM PEPTIDE1{[CCCCCCCCCCCCCC(=O)[*:2]].E.R.R.[am]}$$$$V2.0) |  |
| 40.25 | 64 (≈ 97.7 µM) | 49.95 (±1.00) µg/mL | 128 (≈ 195 µM) | 32 (≈ 48.9 µM) |  | CCCCCCCCCCCCCC(=O)N[C@@H](CC(=O)O)C(=O)N[C@@H](CCCNC(=N)N)C(=O)N[C@@H](CCCNC(=N)N)C(N)=O [compound 18, C14-DRR-NH2] (HELM PEPTIDE1{[CCCCCCCCCCCCCC(=O)[*:2]].D.R.R.[am]}$$$$V2.0) |  |
| 24.30 |  |  |  |  | 24.30 | CCCCCCCCCC(=O)N[C@@H](CCCNC(=N)N)C(=O)N[C@@H](CCCNC(=N)N)C(N)=O [compound 2, C10-RR-NH2, reference compound] (HELM PEPTIDE1{[CCCCCCCCCC(=O)[*:2]].R.R.[am]}$$$$V2.0) |  |
